Test results from ChEMBL document CHEMBL1150646, “Ravenic acid, a new tetramic acid isolated from a cultured microfungus, Penicillium sp” (J Nat Prod, 2002).
Activity calls are given as the source filed them. The calls are words filed in the database; no cut-off is given here.

System: Staphylococcus aureus
Assay: Antibacterial activity against methicillin-resistant Staphylococcus aureus at 25 ug/mL
Assay type: functional, organism-based

## C/C=C/C=C/C=C(C)/C=C/C(O)=C1\C(=O)CNC1=O
  inhibition: Active
